Where “and” joins values, the source holds several entries; their conditions need not be identical. Equal values may be shown once.
Settings: Hot wire method

FC(F)(F)/C=C/Cl [(E)-1-chloro-3,3,3-trifluoroprop-1-ene]
Settings	thermal conductivity
403.42 K, 5979 kPa, Liquid	0.05892 W/m/K
403.43 K, 18618 kPa, Liquid	0.06817 W/m/K
403.44 K, 18637 kPa, Liquid	0.06808 W/m/K
403.48 K, 4696 kPa, Liquid	0.0577 W/m/K
403.48 K, 4700 kPa, Liquid	0.05772 W/m/K
403.49 K, 9102 kPa, Liquid	0.06156 W/m/K
403.49 K, 9108 kPa, Liquid	0.06159 W/m/K
403.53 K, 3569 kPa, Liquid	0.05653 W/m/K
403.54 K, 3575 kPa, Liquid	0.05665 W/m/K
403.54 K, 15778 kPa, Liquid	0.06628 W/m/K
403.54 K, 15782 kPa, Liquid	0.06631 W/m/K
403.58 K, 7083 kPa, Liquid	0.05991 W/m/K
403.58 K, 7093 kPa, Liquid	0.05996 W/m/K
403.59 K, 2636 kPa, Liquid	0.0556 W/m/K
403.6 K, 2641 kPa, Liquid	0.05565 W/m/K
420.8 K, 2579 kPa, Fluid (supercritical or subcritical phases)	0.02548 W/m/K
420.81 K, 2579 kPa, Fluid (supercritical or subcritical phases)	0.02537 W/m/K
420.9 K, 2520 kPa, Fluid (supercritical or subcritical phases)	0.02499 W/m/K and 0.02461 W/m/K
420.92 K, 2579 kPa, Fluid (supercritical or subcritical phases)	0.02548 W/m/K and 0.02551 W/m/K
421 K, 2520 kPa, Fluid (supercritical or subcritical phases)	0.02479 W/m/K
421.01 K, 2519 kPa, Fluid (supercritical or subcritical phases)	0.0248 W/m/K
421.03 K, 2579 kPa, Fluid (supercritical or subcritical phases)	0.02568 W/m/K
421.04 K, 2579 kPa, Fluid (supercritical or subcritical phases)	0.02548 W/m/K
421.11 K, 2519 kPa, Fluid (supercritical or subcritical phases)	0.02483 W/m/K
421.11 K, 2520 kPa, Fluid (supercritical or subcritical phases)	0.02479 W/m/K
421.15 K, 2469 kPa, Fluid (supercritical or subcritical phases)	0.02425 W/m/K and 0.02441 W/m/K
421.16 K, 2579 kPa, Fluid (supercritical or subcritical phases)	0.02588 W/m/K
421.16 K, 2580 kPa, Fluid (supercritical or subcritical phases)	0.02588 W/m/K
421.21 K, 2403 kPa, Fluid (supercritical or subcritical phases)	0.02382 W/m/K
421.24 K, 2520 kPa, Fluid (supercritical or subcritical phases)	0.02505 W/m/K
421.25 K, 2307 kPa, Fluid (supercritical or subcritical phases)	0.02316 W/m/K and 0.02317 W/m/K
421.25 K, 2520 kPa, Fluid (supercritical or subcritical phases)	0.02484 W/m/K
421.29 K, 2203 kPa, Fluid (supercritical or subcritical phases)	0.02266 W/m/K
421.29 K, 2204 kPa, Fluid (supercritical or subcritical phases)	0.02272 W/m/K
421.29 K, 2468 kPa, Fluid (supercritical or subcritical phases)	0.02448 W/m/K
421.3 K, 2469 kPa, Fluid (supercritical or subcritical phases)	0.02444 W/m/K
421.32 K, 2099 kPa, Fluid (supercritical or subcritical phases)	0.02221 W/m/K
421.33 K, 2099 kPa, Fluid (supercritical or subcritical phases)	0.02225 W/m/K
421.35 K, 2403 kPa, Fluid (supercritical or subcritical phases)	0.02395 W/m/K and 0.02391 W/m/K
421.36 K, 1997 kPa, Fluid (supercritical or subcritical phases)	0.02198 W/m/K and 0.02199 W/m/K
421.39 K, 2307 kPa, Fluid (supercritical or subcritical phases)	0.02322 W/m/K
421.39 K, 2519 kPa, Fluid (supercritical or subcritical phases)	0.02527 W/m/K
421.39 K, 2520 kPa, Fluid (supercritical or subcritical phases)	0.02527 W/m/K
421.4 K, 1861 kPa, Fluid (supercritical or subcritical phases)	0.0216 W/m/K
421.4 K, 1862 kPa, Fluid (supercritical or subcritical phases)	0.02165 W/m/K
421.44 K, 1724 kPa, Fluid (supercritical or subcritical phases)	0.02132 W/m/K
421.44 K, 2203 kPa, Fluid (supercritical or subcritical phases)	0.02269 W/m/K
421.44 K, 2469 kPa, Fluid (supercritical or subcritical phases)	0.02473 W/m/K and 0.02459 W/m/K
421.45 K, 1723 kPa, Fluid (supercritical or subcritical phases)	0.02131 W/m/K
421.45 K, 2204 kPa, Fluid (supercritical or subcritical phases)	0.02274 W/m/K
421.48 K, 2100 kPa, Fluid (supercritical or subcritical phases)	0.02256 W/m/K and 0.02228 W/m/K
421.51 K, 2403 kPa, Fluid (supercritical or subcritical phases)	0.02407 W/m/K and 0.02398 W/m/K
421.52 K, 1998 kPa, Fluid (supercritical or subcritical phases)	0.02205 W/m/K and 0.02199 W/m/K
421.53 K, 1561 kPa, Fluid (supercritical or subcritical phases)	0.02097 W/m/K
421.54 K, 1562 kPa, Fluid (supercritical or subcritical phases)	0.02106 W/m/K
421.56 K, 2307 kPa, Fluid (supercritical or subcritical phases)	0.02344 W/m/K and 0.02334 W/m/K
421.57 K, 1862 kPa, Fluid (supercritical or subcritical phases)	0.02171 W/m/K
421.57 K, 1863 kPa, Fluid (supercritical or subcritical phases)	0.02167 W/m/K
421.58 K, 1402 kPa, Fluid (supercritical or subcritical phases)	0.02076 W/m/K
421.59 K, 1402 kPa, Fluid (supercritical or subcritical phases)	0.02091 W/m/K
421.61 K, 2204 kPa, Fluid (supercritical or subcritical phases)	0.02283 W/m/K
421.62 K, 1724 kPa, Fluid (supercritical or subcritical phases)	0.02136 W/m/K
421.62 K, 2203 kPa, Fluid (supercritical or subcritical phases)	0.02292 W/m/K
421.62 K, 2616 kPa, Liquid	0.0497 W/m/K
421.63 K, 1724 kPa, Fluid (supercritical or subcritical phases)	0.0214 W/m/K
421.63 K, 2616 kPa, Liquid	0.04969 W/m/K
421.64 K, 1220 kPa, Fluid (supercritical or subcritical phases)	0.02082 W/m/K
421.64 K, 1221 kPa, Fluid (supercritical or subcritical phases)	0.02077 W/m/K
421.66 K, 2099 kPa, Fluid (supercritical or subcritical phases)	0.02245 W/m/K
421.66 K, 2100 kPa, Fluid (supercritical or subcritical phases)	0.02244 W/m/K
421.67 K, 2403 kPa, Fluid (supercritical or subcritical phases)	0.02364 W/m/K
421.68 K, 1031 kPa, Fluid (supercritical or subcritical phases)	0.02073 W/m/K
421.68 K, 2403 kPa, Fluid (supercritical or subcritical phases)	0.02418 W/m/K
421.69 K, 1998 kPa, Fluid (supercritical or subcritical phases)	0.02232 W/m/K
421.7 K, 1999 kPa, Fluid (supercritical or subcritical phases)	0.02203 W/m/K
421.71 K, 1562 kPa, Fluid (supercritical or subcritical phases)	0.02117 W/m/K
421.72 K, 2307 kPa, Fluid (supercritical or subcritical phases)	0.02349 W/m/K
421.74 K, 801 kPa, Fluid (supercritical or subcritical phases)	0.0208 W/m/K
421.75 K, 1862 kPa, Fluid (supercritical or subcritical phases)	0.02184 W/m/K
421.75 K, 1863 kPa, Fluid (supercritical or subcritical phases)	0.02174 W/m/K
421.77 K, 1401 kPa, Fluid (supercritical or subcritical phases)	0.02096 W/m/K
421.77 K, 1403 kPa, Fluid (supercritical or subcritical phases)	0.02094 W/m/K
421.78 K, 3760 kPa, Liquid	0.05136 W/m/K and 0.05147 W/m/K
421.79 K, 2203 kPa, Fluid (supercritical or subcritical phases)	0.02296 W/m/K and 0.02299 W/m/K
421.8 K, 3309 kPa, Liquid	0.05069 W/m/K
421.81 K, 1723 kPa, Fluid (supercritical or subcritical phases)	0.02142 W/m/K
421.81 K, 1724 kPa, Fluid (supercritical or subcritical phases)	0.02139 W/m/K
421.81 K, 2616 kPa, Liquid	0.04986 W/m/K and 0.05013 W/m/K
421.81 K, 2914 kPa, Liquid	0.05019 W/m/K and 0.05004 W/m/K
421.81 K, 3308 kPa, Liquid	0.05077 W/m/K
421.83 K, 1221 kPa, Fluid (supercritical or subcritical phases)	0.0209 W/m/K
421.84 K, 2100 kPa, Fluid (supercritical or subcritical phases)	0.02258 W/m/K
421.85 K, 2099 kPa, Fluid (supercritical or subcritical phases)	0.02249 W/m/K
421.88 K, 1030 kPa, Fluid (supercritical or subcritical phases)	0.02077 W/m/K
421.88 K, 1033 kPa, Fluid (supercritical or subcritical phases)	0.02075 W/m/K
421.88 K, 1998 kPa, Fluid (supercritical or subcritical phases)	0.0222 W/m/K and 0.02217 W/m/K
421.91 K, 1563 kPa, Fluid (supercritical or subcritical phases)	0.02121 W/m/K
421.91 K, 2306 kPa, Fluid (supercritical or subcritical phases)	0.02366 W/m/K
421.91 K, 2307 kPa, Fluid (supercritical or subcritical phases)	0.02365 W/m/K
421.92 K, 1563 kPa, Fluid (supercritical or subcritical phases)	0.02116 W/m/K
421.94 K, 802 kPa, Fluid (supercritical or subcritical phases)	0.02077 W/m/K
421.95 K, 1862 kPa, Fluid (supercritical or subcritical phases)	0.02178 W/m/K and 0.0218 W/m/K
421.97 K, 2203 kPa, Fluid (supercritical or subcritical phases)	0.02307 W/m/K
421.98 K, 1401 kPa, Fluid (supercritical or subcritical phases)	0.02101 W/m/K
421.98 K, 1403 kPa, Fluid (supercritical or subcritical phases)	0.02116 W/m/K
421.98 K, 2204 kPa, Fluid (supercritical or subcritical phases)	0.02311 W/m/K
421.99 K, 3758 kPa, Liquid	0.05138 W/m/K
421.99 K, 4307 kPa, Liquid	0.05224 W/m/K
422 K, 3762 kPa, Liquid	0.05146 W/m/K
422 K, 4305 kPa, Liquid	0.0522 W/m/K
422.01 K, 1724 kPa, Fluid (supercritical or subcritical phases)	0.02156 W/m/K and 0.02145 W/m/K
422.01 K, 2914 kPa, Liquid	0.05029 W/m/K
422.01 K, 3308 kPa, Liquid	0.05079 W/m/K
422.01 K, 3310 kPa, Liquid	0.05082 W/m/K
422.02 K, 2616 kPa, Liquid	0.05008 W/m/K and 0.05005 W/m/K
422.02 K, 2914 kPa, Liquid	0.05026 W/m/K
422.03 K, 2099 kPa, Fluid (supercritical or subcritical phases)	0.02265 W/m/K
422.04 K, 2099 kPa, Fluid (supercritical or subcritical phases)	0.02262 W/m/K
422.06 K, 1218 kPa, Fluid (supercritical or subcritical phases)	0.02083 W/m/K
422.06 K, 1220 kPa, Fluid (supercritical or subcritical phases)	0.0209 W/m/K
422.08 K, 1998 kPa, Fluid (supercritical or subcritical phases)	0.0223 W/m/K
422.1 K, 1030 kPa, Fluid (supercritical or subcritical phases)	0.02079 W/m/K
422.1 K, 1031 kPa, Fluid (supercritical or subcritical phases)	0.02076 W/m/K
422.12 K, 1562 kPa, Fluid (supercritical or subcritical phases)	0.02118 W/m/K
422.16 K, 1862 kPa, Fluid (supercritical or subcritical phases)	0.02194 W/m/K
422.16 K, 1863 kPa, Fluid (supercritical or subcritical phases)	0.02189 W/m/K
422.18 K, 803 kPa, Fluid (supercritical or subcritical phases)	0.0208 W/m/K
422.18 K, 4947 kPa, Liquid	0.05308 W/m/K
422.18 K, 4948 kPa, Liquid	0.05312 W/m/K
422.2 K, 1401 kPa, Fluid (supercritical or subcritical phases)	0.02102 W/m/K
422.2 K, 1402 kPa, Fluid (supercritical or subcritical phases)	0.02108 W/m/K
422.21 K, 3760 kPa, Liquid	0.05155 W/m/K and 0.05149 W/m/K
422.21 K, 4301 kPa, Liquid	0.05224 W/m/K
422.22 K, 4305 kPa, Liquid	0.05226 W/m/K
422.23 K, 1723 kPa, Fluid (supercritical or subcritical phases)	0.02155 W/m/K
422.23 K, 3307 kPa, Liquid	0.05087 W/m/K
422.24 K, 1723 kPa, Fluid (supercritical or subcritical phases)	0.0216 W/m/K
422.24 K, 3310 kPa, Liquid	0.05093 W/m/K
422.25 K, 1221 kPa, Fluid (supercritical or subcritical phases)	0.0209 W/m/K
422.25 K, 2616 kPa, Liquid	0.05034 W/m/K
422.25 K, 2913 kPa, Liquid	0.05043 W/m/K
422.25 K, 2914 kPa, Liquid	0.05049 W/m/K
422.33 K, 1032 kPa, Fluid (supercritical or subcritical phases)	0.02082 W/m/K
422.33 K, 1561 kPa, Fluid (supercritical or subcritical phases)	0.02131 W/m/K
422.33 K, 6610 kPa, Liquid	0.05507 W/m/K

Source: the NIST ThermoML archive (doi:10.1021/acs.jced.7b00106)
